These results are taken from US20060233857A1, “Degradable elastomeric network” (priority 2005, published 2006).

Data set [1] is described as follows: Diffusivity by Pulsed Field Gradient Nuclear Magnetic Resonance. As to conditions: 37° C. The data set is classed as physicochemical. As for the experimental part:
Goserelin acetate and vitamin B12 were incorporated into cylindrical polymer matrices as described in Example 2, but using only PEGD 24000 g/mol. Goserelin acetate is a peptide having the sequence Pyr-His-Trp-Ser-Tyr-D-Ser(tBu)-Leu-Arg-Pro-Azagly-NH2 acetate salt. Its molecular weight is 1269 g/mol and it has a water solubility of 20 mg/mL at 25° C. […] The diffusivities of these two compounds was determined at 37° C. using Pulsed Field Gradient Nuclear Magnetic Resonance. The measured diffusivities were 2.8±0.1 and 2.6±0.1 (10^−6) cm^2/s for vitamin B12 and goserelin, respectively. These diffusivities are essentially the same. In vitro release experiments on these cylinders were performed as described in Example 2. […] As the diffusivities of the two compounds are very similar, and degradation of the polymer occurs slowly, release cannot be controlled by either diffusion or polymer degradation. The higher release rate must therefore be a result of the higher aqueous solubility of the goserelin acetate. Thus, release is driven by the dissolution rate of the compound in the aqueous regions of the polymer matrix.

Data set [2] can be described thus: In vitro release of goserelin acetate and vitamin B12 from ASCP 2700 / PEGD 24000 cylinders. The data set is classed as physicochemical. The settings on record: 90% ASCP 2700 and 10% PEGD 24000 cylinders, loading 1 w/w %. The source says: Acrylated star-poly(ε-caprolactone-co-D,L-lactide) (ASCP) of molecular weight 2700 g/mol was co-dissolved in tetrahydrofuran with poly(ethylene glycol)diacrylate (PEGD) of molecular weight 4000 g/mol or 24000 g/mol. The total polymer concentration was 1 g/mL THF. The mass ratio of PEGD:ASCP was 1:9 (10% PEGD). In this solution was suspended vitamin B12 particles that had been ground and sieved to less than 100 μm in diameter. The total mass of vitamin B12 to polymer was 1:99 (1% vitamin B12). 1.5 w/w % of 2,2-dimethoxy-2-phenyl-acetophenone (DMPA) photoinitiator was also included. The suspension was injected into a 1.8 mm diameter glass tube to a length of 34 cm and sealed with parafilm. […] The concentration of vitamin B12 in the release samples was measured with a Spectromax microplate spectrophotometer. 0.250 mL of vitamin B12 sample per well was added into a 96 well microplate, and the absorbance of these samples was read at 381 nm. […]
Goserelin acetate and vitamin B12 were incorporated into cylindrical polymer matrices as described in Example 2, but using only PEGD 24000 g/mol. […] The diffusivities of these two compounds was determined at 37° C. using Pulsed Field Gradient Nuclear Magnetic Resonance. The measured diffusivities were 2.8±0.1 and 2.6±0.1 (10^−6) cm^2/s for vitamin B12 and goserelin, respectively. […]

For data set [3] the following is noted: cited from earlier work.
Data set [4] can be described thus: Effect of cross-linking UV irradiation on vitamin B12 absorbance. In kind it is physicochemical. The settings on record: 10 mW/cm^2 long-wave UV 5 minutes, with photo-initiator, in ethyl acetate or non-acrylated polymer solution. As for the experimental part:
As vitamin B12 absorbs within the UV region, it was important to determine whether the cross-linking conditions affected the vitamin B12. The vitamin B12 was therefore suspended in ethyl acetate in the presence of the photo-initiator, and in a non-acrylated polymer solution also containing the photo-initiator, and subjected to 10 mW/cm^2 long-wave UV irradiation for 5 minutes. The vitamin B12 was then filtered from solution, dried, and dissolved in varying concentrations and their absorbance measured and compared to that of solutions prepared from the as-received vitamin B12.

Where a name gives a salt, the structure may show the parent alone. Read-outs that look alike come from different tables or passages of the source.

Turning to `CC(C)C[C@H](NC(=O)[C@@H](COC(C)(C)C)NC(=O)[C@H](Cc1ccc(O)cc1)NC(=O)[C@H](CO)NC(=O)[C@H](Cc1c[nH]c2ccccc12)NC(=O)[C@H](Cc1cnc[nH]1)NC(=O)[C@@H]1CCC(=O)N1)C(=O)N[C@@H](CCCNC(=N)N)C(=O)N1CCC[C@H]1C(=O)NNC(N)=O` [Goserelin acetate, Pyr-His-Trp-Ser-Tyr-D-Ser(tBu)-Leu-Arg-Pro-Azagly-NH2 acetate salt], in data set [1], the diffusivity was 2.6±0.1 (10^−6) cm^2/s. For the same compound, in data set [2], the “release rate compared with vitamin B12 (in words)” value is “appreciably faster rate”. Moreover, the water solubility in data set [3] (25° C.) is 20 mg/mL.

For the compound vitamin B12, the “change in the absorbance of the vitamin B12 due to cross-linking conditions” value in data set [4] is “no significant change”. Also, the diffusivity in data set [1] is on record as 2.8±0.1 (10^−6) cm^2/s. In addition, the water solubility in data set [3] (temperature not given) is 12.5 mg/mL.
